Data on two compounds can be found in ChEMBL document CHEMBL1155696, “Enhanced cytotoxicity in a Z-photoisomer of a benzopyran derivative of propolis” (J Nat Prod, 2000).

A short description of data set [1]: Cytotoxicity against human HLC2 cells after 3 days by WST8 dye reduction assay. The format is functional, cell-based. Conditions: HLC2, 72 h. For orientation: Formazan colour is commonly taken as a measure of viable cells.
The nature of data set [2]: Cytotoxicity against human HLC2 cells after 6 days by WST8 dye reduction assay. The format is functional, cell-based. Conditions: HLC2, 144 h.
Data set [3] concerns HuH13. Kind of data set: Cytotoxicity against human HuH13 cells. The format is functional, cell-based.
A short description of data set [4]: Photochemical stability exposed to visible light in methanol assessed as conversion to (Z)-2,2-Dimethyl-8-(3-methyl-2-butenyl)-benzopyran-6-propenoic acid after 7 days. As to conditions: 168 h.

Calls of active or inactive are those of the source. The calls are words filed in the database; no cut-off is given here.

By IC50 is commonly meant the concentration that gives 50% inhibition. High values mean lower potency, low ones higher potency. Regarding `CC(C)=CCc1cc(/C=C\C(=O)O)cc2c1OC(C)(C)C=C2`, the 50% inhibitory concentration (IC50) in data set [1] amounted to 34 µM; in data set [2], 10 µM. Moreover, in data set [3], the result was Active.
Take `CC(C)=CCc1cc(/C=C/C(=O)O)cc2c1OC(C)(C)C=C2` [CULIFOLIN]: the IC50 amounted to 230 µM in data set [1] and 100 µM in data set [2]. In addition, the outcome in data set [3] was Active. In data set [4], the Activity is given as 71%.
